Assay type in all cases: cell-based, human
One assay relates to p53. Kind of assay: Western blotting in Caco-2 cells. As to conditions: Caco-2, IC50 dose, 24 h, normalized to β-actin. On the procedure:
(§1) The expression of Bax, Bcl-2, Cyt-C, cleaved cas-3 and p53 proteins in Caco-2 cells was determined using Western blot procedure according to the methods mentioned previously. […] Then, cells were lysed in 150 µL pre-cold lysis buffer [Tris-Base “10 mM”, NaCl “100 mM”, Ethylene glycol bis (2-aminoethyl) tetraacetic acid (EGTA) “20 mM”, ethylenediaminetetraacetic acid (EDTA) “25 mM”, 1% (v/v) NP-40, and 1% (v/v) Triton X-100; pH 7.4] immediately supplemented with 1:450 protease and phosphatase inhibitors cocktail (Sigma-Aldrich). Caco-2 cells were immediately collected by cell scraper, sonicated, and centrifuged at 12,000 rpm for 15 min. Total proteins in the produced supernatant were determined colorimetrically using the Pierce™ 660 nm Assay (Thermo Scientific, Rockford, IL, USA). Equal amounts (30 µg) of protein were mixed with sodium dodecyl sulfate (SDS)-loading buffer containing Tris-HCl, dithiothreitol (DTT), SDS, glycerol, and Bromophenol blue. The protein samples were then denatured by boiling for 5 min, allowed to cool on ice for 10 min and separated by SDS-polyacrylamide gel electrophoresis (Cleaver Scientific Ltd., Rugby, Warwickshire, UK), and transferred onto Polyvinylidene Difluoride (PVDF) membranes for 30 min using Trans-Blot® SD semi-dry transfer cell (Biorad). Membranes were then blocked with 5% (w/v) blotting-grade dry milk (Biorad) in Tris-buffered saline-Tween-20 (TBS-T), washed and incubated with antibodies against Bax, Bcl-2, cleaved caspase-3 (1:100–1:2000, Cell Signaling Technology), cytochrome c (1:500, Santa Cruz Biotechnology), p53 (1:1500, Abcam) and β-actin (1:2500, Sigma-Aldrich) for 16–17 h at 4 °C in a humidified chamber. The blots were washed, incubated at RT with matched horseradish peroxidase (HRP)-linked secondary antibodies (Dako, Denmark) for 1.5 h, and the bands were visualized with chemiluminescence Western Lightning ECL (Perkin Elmer, Waltham, MA) for 1 min in Chemi-Doc imager (Biorad, Hercules, CA, USA) and finally analyzed with Bio-Rad Image Lab software with normalization to β-actin.
(A western blot detects proteins with antibodies after separation by electrophoresis.)

A further assay relates to Cyt-C. Briefly: Western blotting in Caco-2 cells. As to conditions: Caco-2, IC50 dose, 24 h, normalized to β-actin. On the procedure: as §1
The test system of the next assay is Cytochrome-C. Kind of assay: Immunocytochemistry of cytosolic Cyt-C in Caco-2 cells. As to conditions: Caco-2, IC50, 24 h, compared to 0.1% DMSO control. Here is the method: Caco-2 cells were seeded onto coverslips at a density of 1 × 10^6 cells using 0.1 mg/mL Poly-L-Lysine (Sigma-Aldrich, St. Louis, MO, USA) for immunocytochemistry (ICC) analysis. After treatment with IC50 of retinoids, cells were fixed in formalin neutral buffer (FNB) solution. The fixed cells were permeabilized with 0.1% Triton-x 100 and then blocked in 1% bovine serum albumin (BSA, prepared in PBS containing 0.1% Tween 20) for 30 min. Then, cells were incubated with Alexa Fluor® 488-conjugated anti-cytochrome C antibody overnight. After incubation, nuclei of cells were stained with Hoechst 33,258 (Sigma-Aldrich, St. Louis, MO, USA, 1:500). The coverslips were mounted in anti-fading medium (0.1% p-phenylenediamine, dissolved in 90% glycerin/PBS) and cytochrome C protein expression was detected using Carl Zeiss LSM 710 confocal microscope.

In another assay the test system is RAR-α. Briefly: Gene expression analysis (qPCR) in Caco-2 cells. As to conditions: Caco-2, IC50, 24 h, relative to 0.1% DMSO control, normalized to GAPDH. On the procedure:
Sensitive cancer cell line (Caco-2) was used for gene expression analysis of different genes controlling differentiation, apoptosis, tumor resistance, aggressiveness, and metastasis. […] After incubation, cells were harvested, and the total RNA was purified using Favor-Prep^TM Blood/Cultured cell total RNA purification mini kit (Favorgen Biotech Corp., Ping-Tung, Taiwan). RNA was reverse transcribed into the first-strand cDNA using Revert Aid First Strand cDNA Synthesis Kit (Thermo Scientific, Waltham, MA, USA). HERA^PLUS SYBR® Green qPCR Kit (Willowfort, Nottingham, UK) was utilized in quantitative polymerase chain reactions (qPCR). Gene expression was analyzed and quantified using the 2ˆ^−ΔΔCT method.
For orientation: Real-time PCR tracks product formation cycle by cycle.

The subject of a further assay is Caco-2 cells. Kind of assay: Isobologram analysis of retinoid + 5-FU combinations (MTT). The note with it: Caco-2, combination with 5-FU; for CI (combination index): CI < 1 is synergy. The text has this: This mathematical model allows the determination of CI (combination index) values based on the Equation (1):CI = d1/D1 + d2/D2 (1) where d1 and d2 are the doses of drug 1 and drug 2 that, when given in combination, produce a specific response. D1 and D2 are the doses of drug 1 and drug 2, that, when given individually, produce the same response. Also, CI < 1 is synergy, CI = 1 is additivity and CI > 1 is antagonism
DRI < 1 indicates unfavorable dose reduction and ineffective combination.

The subject of another assay is HT-29. Kind of assay: MTT antiproliferation assay. As to conditions: for SI (selectivity index): HT-29, SI = IC50 (WI-38)/IC50 (cancer cell line); for pIC50: Homo sapiens, HT-29, MTT, 24 h, mean ± SEM. In a few lines:
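Each line was seeded at 20,000 cells/well, adhered overnight, then treated 24 h in serum-free dilutions under reduced light, with 0.1% DMSO as negative control. MTT (0.5 mg/mL final) was added for 4 h at 37 °C, formazan dissolved in DMSO and absorbance read at 540 nm. IC50 is the concentration giving 50% growth inhibition.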
A general note: Formazan colour is commonly taken as a measure of viable cells.

Molecules are shown by their SMILES. pIC50: −log10 of the molar value. Some results are limits rather than exact numbers.

Usually pIC50 stands for −log10 of the IC50, conventionally taken in molar units. Read a high pIC50 as a low IC50.

In the case of `CC1(C)CCC(C)(C)c2cc(C#Cc3cccc(C(=O)O)c3)ccc21` [EC19, 3-(5,5,8,8-tetramethyl-5,6,7,8-tetrahydronaphthalen-2-ylethynyl) benzoic acid], in the assay on p53, the p53 protein level entry is “significantly increased”. In addition, the Cyt-C protein level result in the assay on Cyt-C is “significantly increased”. In the assay on Cytochrome-C, the “cytosolic Cyt-C protein released (anti-Cyt-C fluorescence intensity)” value is on record as “significant increase”. In addition, the “RAR-α gene expression, fold increase” value with RAR-α is 2.6 fold. Moreover, in the assay on Caco-2 cells, the “DRI (dose reduction index)” value is 4.5 ± 0.6 and the “CI (combination index)” value came out at 0.46 ± 0.06. Further, in the assay with HT-29, the “SI (selectivity index)” value is on record as less than 1 and the pIC50 was less than 4.00.
`CC1(C)CCC(C)(C)c2cc(C#Cc3ccc(C(=O)O)cc3)ccc21` [EC23, 4-(5,5,8,8-tetramethyl-5,6,7,8-tetrahydronaphthalen-2-ylethynyl) benzoic acid]: the “cytosolic Cyt-C protein released (anti-Cyt-C fluorescence intensity)” value with Cytochrome-C was “second rank”. Further, in the assay with RAR-α, the “RAR-α gene expression, fold increase” value is “no effect”. Besides, in the assay with Caco-2 cells, the “DRI (dose reduction index)” value is 7.5 ± 0.8 and the “CI (combination index)” value is given as 0.27 ± 0.03. In addition, in the assay with HT-29, the “SI (selectivity index)” value is less than 1 and the pIC50 was less than 4.00.

The record behind these values is PMC7835894 (Molecules, 2021).
